Test results taken from US8163511B2, “Methods for the identification of LRRK2 interacting molecules” (CellZome AG, priority 2006, dated 2012).

Biological target: T1, LRRK2 (Mus musculus, UniProt Q5S006)
T1 construct: from tissue; host or cells: mouse brain
Test: Drug pulldown with immobilized indol ligand 91 and identification of LRRK2 by LC-MS/MS
Format: binding
Conditions: ligand covalently attached to Sepharose beads, mouse brain lysate, SDS elution, SDS-PAGE, twelve LRRK2 peptides identified
Procedure: Proteins binding to immobilized indol ligand 91 were identified using a chemical proteomics procedure. Binding proteins were purified on a resin to which indol ligand 91 was covalently attached. Bound proteins were eluted and subsequently separated by SDS-Polyacrylamide gel elecrophoresis (see FIG. 2), suitable gel bands were cut out and proteins were analyzed by LC-MS/MS mass spectrometry.
NHS-activated Sepharose 4 Fast Flow (Amersham Biosciences, 17-0906-01) was equilibrated with anhydrous DMSO (Dimethylsulfoxid, Fluka, 41648, H20<=0.005%). 1 ml of settled beads were placed in a 15 ml Falcon tube, compound stock solution (usually 100 mM in DMF or DMSO) was added (final conc. 0.2-2 μmol/ml beads) as well as 15 μl of TEA. Beads were incubated at room temperature in darkness on an end-over-end shaker (Roto Shake Genie, Scientific Industries Inc.) for 16-20 hours. Coupling efficiency was determined by HPLC. […]
Mouse brain tissue was homogenized in a Potter S homogenizer (5 ml per brain): 50 mM Tris-HCl, 1% CHAPSO, 5% glycerol, 150 mM NaCl, 1.5 mM MgCl2, 25 mM NaF, 1 mM sodium vanadate, 1 mM DTT, pH 7.5. […] The supernatant was transferred again to a fresh 50 ml falcon tube, the protein concentration was determined by a Bradford assay (BioRad) and samples containing 50 mg of protein per aliquot were prepared. […]

T1 sequence (Q5S006 whole entry V777I/K863N/C925Y/E1011G/E1190G/E1882G/Q2178N): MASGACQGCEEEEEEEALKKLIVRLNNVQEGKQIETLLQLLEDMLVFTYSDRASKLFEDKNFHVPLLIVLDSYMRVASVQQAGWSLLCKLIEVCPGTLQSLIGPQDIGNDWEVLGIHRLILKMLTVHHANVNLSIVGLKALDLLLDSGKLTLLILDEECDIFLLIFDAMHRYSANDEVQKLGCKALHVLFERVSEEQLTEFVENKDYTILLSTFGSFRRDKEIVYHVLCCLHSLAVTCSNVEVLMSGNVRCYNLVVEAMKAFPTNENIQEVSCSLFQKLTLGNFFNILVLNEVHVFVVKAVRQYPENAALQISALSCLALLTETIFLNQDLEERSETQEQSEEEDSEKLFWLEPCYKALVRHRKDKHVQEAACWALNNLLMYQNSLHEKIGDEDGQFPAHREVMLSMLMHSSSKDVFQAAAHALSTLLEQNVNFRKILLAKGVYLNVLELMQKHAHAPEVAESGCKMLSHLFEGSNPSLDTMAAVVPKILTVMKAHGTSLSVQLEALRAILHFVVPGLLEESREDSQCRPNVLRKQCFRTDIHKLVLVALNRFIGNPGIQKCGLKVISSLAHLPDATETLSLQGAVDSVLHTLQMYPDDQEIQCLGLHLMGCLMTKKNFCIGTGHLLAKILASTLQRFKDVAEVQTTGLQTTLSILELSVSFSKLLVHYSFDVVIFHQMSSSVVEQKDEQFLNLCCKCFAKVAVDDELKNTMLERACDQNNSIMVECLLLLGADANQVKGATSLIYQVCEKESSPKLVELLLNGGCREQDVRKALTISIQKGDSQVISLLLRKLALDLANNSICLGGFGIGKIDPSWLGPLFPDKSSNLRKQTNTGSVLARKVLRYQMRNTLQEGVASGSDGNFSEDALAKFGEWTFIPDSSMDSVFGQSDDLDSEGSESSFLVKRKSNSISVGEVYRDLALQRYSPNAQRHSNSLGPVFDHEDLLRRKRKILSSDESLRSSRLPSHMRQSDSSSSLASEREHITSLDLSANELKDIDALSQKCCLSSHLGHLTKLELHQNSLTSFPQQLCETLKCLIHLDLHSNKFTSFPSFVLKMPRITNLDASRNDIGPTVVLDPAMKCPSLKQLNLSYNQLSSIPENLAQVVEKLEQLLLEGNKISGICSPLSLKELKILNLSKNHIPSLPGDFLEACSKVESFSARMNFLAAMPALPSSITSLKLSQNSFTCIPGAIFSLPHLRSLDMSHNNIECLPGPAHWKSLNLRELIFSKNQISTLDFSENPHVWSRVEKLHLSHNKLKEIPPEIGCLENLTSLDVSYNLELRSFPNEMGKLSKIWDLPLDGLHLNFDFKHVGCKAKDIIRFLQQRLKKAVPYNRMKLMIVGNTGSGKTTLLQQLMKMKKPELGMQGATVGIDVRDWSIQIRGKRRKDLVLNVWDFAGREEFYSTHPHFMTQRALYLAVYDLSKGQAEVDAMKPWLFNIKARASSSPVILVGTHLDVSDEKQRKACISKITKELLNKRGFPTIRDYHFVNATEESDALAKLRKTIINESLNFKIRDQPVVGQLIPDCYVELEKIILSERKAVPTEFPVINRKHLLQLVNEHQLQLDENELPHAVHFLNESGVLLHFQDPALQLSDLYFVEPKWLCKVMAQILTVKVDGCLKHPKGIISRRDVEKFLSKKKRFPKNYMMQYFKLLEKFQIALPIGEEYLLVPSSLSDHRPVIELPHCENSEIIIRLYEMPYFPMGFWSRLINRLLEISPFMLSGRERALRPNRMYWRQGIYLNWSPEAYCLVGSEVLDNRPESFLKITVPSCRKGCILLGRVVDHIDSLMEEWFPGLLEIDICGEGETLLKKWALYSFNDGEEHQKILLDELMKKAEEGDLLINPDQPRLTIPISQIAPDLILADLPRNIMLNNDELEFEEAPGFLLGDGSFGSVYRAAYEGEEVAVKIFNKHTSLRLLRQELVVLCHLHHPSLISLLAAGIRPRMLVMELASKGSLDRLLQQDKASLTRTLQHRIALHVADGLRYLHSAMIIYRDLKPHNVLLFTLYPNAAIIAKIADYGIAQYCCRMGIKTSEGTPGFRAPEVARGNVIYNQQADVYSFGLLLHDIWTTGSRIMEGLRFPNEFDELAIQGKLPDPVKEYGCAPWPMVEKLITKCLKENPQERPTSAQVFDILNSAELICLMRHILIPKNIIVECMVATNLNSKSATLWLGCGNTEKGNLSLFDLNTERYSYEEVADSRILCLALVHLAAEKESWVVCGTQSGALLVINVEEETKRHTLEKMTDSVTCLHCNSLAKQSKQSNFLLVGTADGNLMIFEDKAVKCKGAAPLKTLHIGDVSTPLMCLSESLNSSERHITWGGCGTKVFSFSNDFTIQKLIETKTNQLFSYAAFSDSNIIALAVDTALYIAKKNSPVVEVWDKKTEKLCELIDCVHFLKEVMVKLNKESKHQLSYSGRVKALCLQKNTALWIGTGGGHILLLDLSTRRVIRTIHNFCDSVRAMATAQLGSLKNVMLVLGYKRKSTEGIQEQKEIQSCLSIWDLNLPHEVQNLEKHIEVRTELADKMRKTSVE

Cc1[nH]c(/C=C2\C(=O)Nc3ccc(F)cc32)c(C)c1C(=O)NCCCN [indol ligand 91, 5-[5-Fluoro-2-oxo-1,2-dihydro-indol-(3Z)-ylidenemethyl]-2,4-dimethyl-1H-pyrrole-3-carboxylic acid (3-amino-propyl)-amide]
enrichment/identification of LRRK2 bound to the immobilized ligand: can be used to enrich and characterize LRRK2 from mouse brain lysates
